Experimental data from patent publication US20150272934A1, “USE OF CSE INHIBITORS FOR THE TREATMENT OF CUTANEOUS INJURIES OR CONDITIONS AND SLEEP-RELATED BREATHING DISORDERS” (SOVA PHARMACEUTICALS, INC., priority 2012, published 2015).

Assays:
[1] = test system: hypoxic ventilatory response; assay: Rat hypoxic ventilatory response (HVR) in sham and carotid sinus nerve (CSN) transection animals; type: in vivo, Sprague Dawley rats; conditions: 100 mg/kg L-PAG
Experimental: Male Sprague Dawley rats from Harlan Laboratories weighing 350±31 g (Mean±SD); were maintained on a 12 hour light:dark cycle (6 am lights on) with food and water ad libitum.
L-Propargyl Glycine (L-PAG) was solubilized in saline at 33.3 mg/ml.
Carotid sinus nerve (CSN) transaction—Under appropriate anesthesia the rat's neck is shaved and prepped for surgery with betadine solution. An incision is made in the throat area extending about 2 cm. The underlying musculature is incised to expose the carotid bifurcation on both sides. A silk suture is looped around the proximal external carotid and retracted laterally for control. […] The carotid sinus nerve is transected where it originates on the exposed part of the glossopharyngeal and ascends to the carotid bifurcation.
Animals were pre-habituated to the test environment on 2 separate 45 minute periods prior to the test day. Following administration of test compounds animals were placed inside the whole body plethysmography chamber. The animals were allowed to acclimate to the environment for 60 minutes while breathing a 21% O2 balance N2 gas mix. After acclimation, the following gas mix protocol was followed:
Cycles were designated to be the periods of both normoxia and hypoxia. Each experiment consisted of 2 cycles (or repeated sets) of the HVR to a normoxic-hypoxic shift. The cycles were 30 minutes in duration to allow for serial sampling from baseline and all 4 WBP test chambers. Each sampling period was of 4 minutes duration and was in a varying order but was always preceded by a 4 minute baseline. The sampling periods were calculated to allow for equilibration of the gas mixture in the WBP chamber. Switching of the multiplexer (MUX) line sampler system was achieved through use of a user defined program. The gas mixtures were likewise switched automatically using a user defined custom mix program and the Sable Systems/Alicat Multi Flow Controller utility.
Analysis of data was performed in GraphPad Prism (v5) using embedded 1-way Analysis of Variance (ANOVA) followed by Dunnett's or Tukey's MCT post hoc testing where appropriate. Bartlett's Equal Variance tests were performed on all data sets, however failure of equal variance was not considered to impinge the validity of the test.

[2] = test system: deep partial thickness cutaneous burn injury, zone of stasis; assay: Comb burn model for cutaneous burn; type: in vivo, Sprague-Dawley rats
[3] = Half-life of L-propargylglycine (statement in dosing rationale)

## C#CC[C@H](N)C(=O)O [L-propargylglycine]
[1]; CSN transection animals
  HVR (change in slope of minute ventilation): did not change
  Increase of minute ventilation (VE) when FiO2 changed from 21% to 10%: 22%
[1]; sham animals
  Increase of minute ventilation (VE) when FiO2 changed from 21% to 10%: 51%
[1]; sham animals, p<0.05
  HVR (change in slope of minute ventilation): significantly reduced
[2]; L-propargylglycine 100 mg/kg IP Day 0, Compound 1 20 mg/kg PO once daily, 6-day time course, versus control animals
  Viability of zones of stasis/interspaces on gross examination (burn progression): maintain viability
[2]; over time course, control animals showed a decrease in perfusion
  Perfusion in zones of stasis/interspace areas (LDI analysis): perfusion is maintained
[2]; within 48-72 hours, less injured versus worse/the same scale
  Blinded photo grading of treated interspaces versus control interspaces: less injured than controls
[3]
  half-life: very long
